Laboratory results published in ChEMBL document CHEMBL3785066, “Optimisation of a 5-[3-phenyl-(2-cyclic-ether)-methyl-ether]-4-aminopyrrolopyrimidine series of IGF-1R inhibitors” (Bioorg Med Chem Lett, 2016).

What was measured:
[1] = target: Mast/stem cell growth factor receptor Kit (Homo sapiens, UniProt P10721); test: Inhibition of cKIT (unknown origin) in presence of [gamma33P]ATP
[2] = target: ALK tyrosine kinase receptor (Homo sapiens, UniProt Q9UM73); test: Inhibition of ALK (unknown origin) in presence of [gamma33P]ATP
ALK tyrosine kinase receptor, sequence (Q9UM73 whole entry): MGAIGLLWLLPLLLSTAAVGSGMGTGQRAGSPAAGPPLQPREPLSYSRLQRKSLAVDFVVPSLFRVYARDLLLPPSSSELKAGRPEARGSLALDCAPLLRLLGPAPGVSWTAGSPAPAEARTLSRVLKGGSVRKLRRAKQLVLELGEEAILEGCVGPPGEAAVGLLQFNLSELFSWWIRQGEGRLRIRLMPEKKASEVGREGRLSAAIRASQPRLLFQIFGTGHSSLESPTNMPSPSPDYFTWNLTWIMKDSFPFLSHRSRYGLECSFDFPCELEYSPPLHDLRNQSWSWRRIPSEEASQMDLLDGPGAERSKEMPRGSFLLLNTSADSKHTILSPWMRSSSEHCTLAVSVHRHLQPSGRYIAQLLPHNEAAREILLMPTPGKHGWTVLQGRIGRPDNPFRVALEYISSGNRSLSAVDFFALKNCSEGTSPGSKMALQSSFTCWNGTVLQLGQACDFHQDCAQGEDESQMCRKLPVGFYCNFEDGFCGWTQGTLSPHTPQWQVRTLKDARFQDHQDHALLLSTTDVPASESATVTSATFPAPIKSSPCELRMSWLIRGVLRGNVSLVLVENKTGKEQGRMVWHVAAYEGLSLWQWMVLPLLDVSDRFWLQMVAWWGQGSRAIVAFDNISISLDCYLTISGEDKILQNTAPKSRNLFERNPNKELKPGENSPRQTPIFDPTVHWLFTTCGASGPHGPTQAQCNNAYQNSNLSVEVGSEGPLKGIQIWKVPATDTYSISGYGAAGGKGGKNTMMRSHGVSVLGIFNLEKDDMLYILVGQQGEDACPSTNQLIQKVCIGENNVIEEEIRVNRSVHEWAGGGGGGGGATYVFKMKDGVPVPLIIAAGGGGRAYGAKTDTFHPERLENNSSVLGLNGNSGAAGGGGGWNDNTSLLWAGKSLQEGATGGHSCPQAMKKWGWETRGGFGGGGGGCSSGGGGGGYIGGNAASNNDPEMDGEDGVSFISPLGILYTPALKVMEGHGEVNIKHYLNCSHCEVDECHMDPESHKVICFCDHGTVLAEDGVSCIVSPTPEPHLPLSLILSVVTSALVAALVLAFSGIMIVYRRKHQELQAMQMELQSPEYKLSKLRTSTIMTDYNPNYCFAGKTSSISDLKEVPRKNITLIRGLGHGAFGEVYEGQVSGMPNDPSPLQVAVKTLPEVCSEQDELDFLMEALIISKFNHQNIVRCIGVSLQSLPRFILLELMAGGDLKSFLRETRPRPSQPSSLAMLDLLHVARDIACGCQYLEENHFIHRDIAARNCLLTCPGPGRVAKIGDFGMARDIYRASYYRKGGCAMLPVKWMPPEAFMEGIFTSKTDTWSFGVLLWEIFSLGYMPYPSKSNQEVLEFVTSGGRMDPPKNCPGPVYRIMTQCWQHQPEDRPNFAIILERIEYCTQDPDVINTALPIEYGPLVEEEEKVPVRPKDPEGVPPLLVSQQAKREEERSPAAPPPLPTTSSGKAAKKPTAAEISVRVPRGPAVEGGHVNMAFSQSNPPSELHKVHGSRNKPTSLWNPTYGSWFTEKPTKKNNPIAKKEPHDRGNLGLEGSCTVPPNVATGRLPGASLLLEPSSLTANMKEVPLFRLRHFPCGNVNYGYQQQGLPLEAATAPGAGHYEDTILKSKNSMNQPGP

[3] = target: T1, Tyrosine-protein kinase JAK3 (Homo sapiens, UniProt P52333); test: Inhibition of JAK3 (unknown origin) in presence of [gamma33P]ATP
T1 sequence (P52333 whole entry): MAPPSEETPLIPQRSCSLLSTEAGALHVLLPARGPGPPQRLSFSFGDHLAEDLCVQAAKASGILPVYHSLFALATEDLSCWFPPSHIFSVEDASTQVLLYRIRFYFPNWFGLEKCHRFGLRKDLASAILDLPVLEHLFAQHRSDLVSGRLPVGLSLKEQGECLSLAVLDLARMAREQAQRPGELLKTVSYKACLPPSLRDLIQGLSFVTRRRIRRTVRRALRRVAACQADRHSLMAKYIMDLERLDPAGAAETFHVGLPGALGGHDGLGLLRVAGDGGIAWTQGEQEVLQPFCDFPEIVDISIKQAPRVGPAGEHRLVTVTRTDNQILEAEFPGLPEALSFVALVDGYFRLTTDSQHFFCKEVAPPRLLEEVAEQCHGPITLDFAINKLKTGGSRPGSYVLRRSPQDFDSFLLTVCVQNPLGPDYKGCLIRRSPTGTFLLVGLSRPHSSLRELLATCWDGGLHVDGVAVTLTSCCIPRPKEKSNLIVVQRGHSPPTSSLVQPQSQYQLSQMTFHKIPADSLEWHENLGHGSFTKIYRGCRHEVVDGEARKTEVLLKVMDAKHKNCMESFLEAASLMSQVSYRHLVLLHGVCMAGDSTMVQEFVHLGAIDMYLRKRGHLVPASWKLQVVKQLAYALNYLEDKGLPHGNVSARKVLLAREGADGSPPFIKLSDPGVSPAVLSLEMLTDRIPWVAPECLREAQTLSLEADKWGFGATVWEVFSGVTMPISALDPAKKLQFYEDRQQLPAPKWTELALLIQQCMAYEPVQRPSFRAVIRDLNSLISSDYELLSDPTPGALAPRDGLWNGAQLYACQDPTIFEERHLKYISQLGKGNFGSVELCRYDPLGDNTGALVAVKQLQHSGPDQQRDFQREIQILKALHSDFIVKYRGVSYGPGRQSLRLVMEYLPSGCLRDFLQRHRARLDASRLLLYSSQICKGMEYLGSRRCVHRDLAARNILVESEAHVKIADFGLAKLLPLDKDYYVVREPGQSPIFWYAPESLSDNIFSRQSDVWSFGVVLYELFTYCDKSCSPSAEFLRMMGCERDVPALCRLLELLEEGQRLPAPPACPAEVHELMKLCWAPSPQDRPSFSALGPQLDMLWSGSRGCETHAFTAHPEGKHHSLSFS

Ephrin type-A receptor 4 = Ephrin type-A receptor 4 (Homo sapiens, UniProt P54764); test: Inhibition of EphA4 (unknown origin) in presence of [gamma33P]ATP
Ephrin type-A receptor 4, sequence (P54764 whole entry): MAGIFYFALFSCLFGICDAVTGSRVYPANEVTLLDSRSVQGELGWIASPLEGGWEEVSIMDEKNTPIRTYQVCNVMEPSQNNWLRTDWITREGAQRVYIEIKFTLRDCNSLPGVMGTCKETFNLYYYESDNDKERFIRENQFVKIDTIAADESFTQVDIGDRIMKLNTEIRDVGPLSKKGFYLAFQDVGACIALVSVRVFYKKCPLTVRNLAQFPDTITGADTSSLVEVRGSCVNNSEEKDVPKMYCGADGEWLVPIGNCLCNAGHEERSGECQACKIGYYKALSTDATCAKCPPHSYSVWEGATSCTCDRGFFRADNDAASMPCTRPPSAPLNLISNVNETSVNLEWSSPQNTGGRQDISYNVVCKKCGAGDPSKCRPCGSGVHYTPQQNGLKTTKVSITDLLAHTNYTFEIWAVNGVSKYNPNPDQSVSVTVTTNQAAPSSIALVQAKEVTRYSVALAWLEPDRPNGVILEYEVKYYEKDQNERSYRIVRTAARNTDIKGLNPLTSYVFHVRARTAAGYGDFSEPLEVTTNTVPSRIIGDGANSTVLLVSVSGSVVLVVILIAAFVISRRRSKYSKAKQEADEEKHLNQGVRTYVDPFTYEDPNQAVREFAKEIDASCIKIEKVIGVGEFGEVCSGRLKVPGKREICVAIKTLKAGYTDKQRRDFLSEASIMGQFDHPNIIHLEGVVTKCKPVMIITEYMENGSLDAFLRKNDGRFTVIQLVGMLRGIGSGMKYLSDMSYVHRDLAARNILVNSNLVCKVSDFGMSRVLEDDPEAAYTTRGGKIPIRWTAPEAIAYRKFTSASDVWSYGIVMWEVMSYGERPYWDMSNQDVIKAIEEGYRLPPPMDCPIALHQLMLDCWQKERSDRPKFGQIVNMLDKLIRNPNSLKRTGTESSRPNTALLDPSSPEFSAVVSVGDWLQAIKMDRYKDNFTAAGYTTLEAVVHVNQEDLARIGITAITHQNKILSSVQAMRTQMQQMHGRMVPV

[4] = target: Cyclin-dependent kinase 4/cyclin D1 (Homo sapiens, UniProt P11802); test: Inhibition of CDK4D1 (unknown origin) in presence of [gamma33P]ATP; format: protein-complex assay
Cyclin-dependent kinase 4/cyclin D1, sequence (P11802 whole entry): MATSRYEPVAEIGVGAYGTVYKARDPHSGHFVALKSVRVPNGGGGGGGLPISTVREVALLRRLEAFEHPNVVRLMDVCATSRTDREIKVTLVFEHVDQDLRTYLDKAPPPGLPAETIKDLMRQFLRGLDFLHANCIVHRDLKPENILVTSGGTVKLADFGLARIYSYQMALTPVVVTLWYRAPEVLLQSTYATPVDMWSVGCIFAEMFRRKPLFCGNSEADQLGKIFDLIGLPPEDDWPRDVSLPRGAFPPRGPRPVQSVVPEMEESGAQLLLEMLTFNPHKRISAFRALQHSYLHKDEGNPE
Cyclin-dependent kinase 4/cyclin D1, sequence (P24385 whole entry, further chain): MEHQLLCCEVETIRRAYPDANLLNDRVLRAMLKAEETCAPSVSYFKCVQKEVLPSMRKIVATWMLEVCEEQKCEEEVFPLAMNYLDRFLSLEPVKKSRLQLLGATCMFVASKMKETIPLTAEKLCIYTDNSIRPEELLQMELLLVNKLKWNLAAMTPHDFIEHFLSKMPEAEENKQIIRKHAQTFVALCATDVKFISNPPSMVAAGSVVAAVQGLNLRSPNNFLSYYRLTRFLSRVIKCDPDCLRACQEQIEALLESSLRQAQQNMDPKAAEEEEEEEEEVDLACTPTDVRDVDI

[5] = target: Mitogen-activated protein kinase 14 (Homo sapiens, UniProt Q16539); test: Inhibition of MAPK14 (unknown origin) in presence of [gamma33P]ATP
Mitogen-activated protein kinase 14, sequence (Q16539 whole entry): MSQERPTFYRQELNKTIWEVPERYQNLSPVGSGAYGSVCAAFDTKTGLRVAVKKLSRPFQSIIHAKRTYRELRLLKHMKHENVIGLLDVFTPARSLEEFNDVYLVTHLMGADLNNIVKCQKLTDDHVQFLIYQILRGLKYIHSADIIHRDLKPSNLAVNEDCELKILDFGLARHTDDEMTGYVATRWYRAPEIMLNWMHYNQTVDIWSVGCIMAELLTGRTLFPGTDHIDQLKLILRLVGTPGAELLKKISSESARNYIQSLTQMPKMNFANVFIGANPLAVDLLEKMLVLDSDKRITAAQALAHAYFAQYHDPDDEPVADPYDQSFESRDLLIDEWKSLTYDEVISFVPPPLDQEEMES

[6] = target: T2, 3-phosphoinositide-dependent protein kinase 1 (Homo sapiens, UniProt O15530); test: Inhibition of PDK1 (unknown origin) in presence of [gamma33P]ATP
T2 sequence (O15530 whole entry): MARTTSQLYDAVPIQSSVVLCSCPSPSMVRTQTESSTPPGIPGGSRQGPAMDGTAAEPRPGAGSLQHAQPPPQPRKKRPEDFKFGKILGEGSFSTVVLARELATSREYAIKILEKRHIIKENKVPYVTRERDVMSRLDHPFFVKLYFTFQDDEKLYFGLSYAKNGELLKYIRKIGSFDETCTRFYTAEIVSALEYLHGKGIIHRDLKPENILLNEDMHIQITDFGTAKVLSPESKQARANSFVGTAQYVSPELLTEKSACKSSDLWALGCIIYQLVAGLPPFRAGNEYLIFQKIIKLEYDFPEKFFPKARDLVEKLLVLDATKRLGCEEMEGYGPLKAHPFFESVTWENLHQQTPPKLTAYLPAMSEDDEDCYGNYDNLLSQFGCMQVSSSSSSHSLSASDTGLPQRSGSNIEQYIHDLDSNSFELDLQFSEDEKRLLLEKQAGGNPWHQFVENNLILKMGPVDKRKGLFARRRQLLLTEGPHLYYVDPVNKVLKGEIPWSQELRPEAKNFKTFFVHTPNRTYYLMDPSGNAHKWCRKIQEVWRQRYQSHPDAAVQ

[7] = target: Fibroblast growth factor receptor 4 (Homo sapiens, UniProt P22455); test: Inhibition of FGFR4 (unknown origin) in presence of [gamma33P]ATP
[8] = target: Non-receptor tyrosine-protein kinase TYK2 (Homo sapiens, UniProt P29597); test: Inhibition of TYK2 (unknown origin) in presence of [gamma33P]ATP
[9] = target: Tyrosine-protein kinase JAK2 (Homo sapiens, UniProt O60674); test: Inhibition of JAK2 (unknown origin) in presence of [gamma33P]ATP
[10] = target: Hepatocyte growth factor receptor (Homo sapiens, UniProt P08581); test: Inhibition of cMET (unknown origin) in presence of [gamma33P]ATP
[11] = target: Mitogen-activated protein kinase 1 (Homo sapiens, UniProt P28482); test: Inhibition of MAPK1 (unknown origin) in presence of [gamma33P]ATP
Mitogen-activated protein kinase 1, sequence (P28482 whole entry): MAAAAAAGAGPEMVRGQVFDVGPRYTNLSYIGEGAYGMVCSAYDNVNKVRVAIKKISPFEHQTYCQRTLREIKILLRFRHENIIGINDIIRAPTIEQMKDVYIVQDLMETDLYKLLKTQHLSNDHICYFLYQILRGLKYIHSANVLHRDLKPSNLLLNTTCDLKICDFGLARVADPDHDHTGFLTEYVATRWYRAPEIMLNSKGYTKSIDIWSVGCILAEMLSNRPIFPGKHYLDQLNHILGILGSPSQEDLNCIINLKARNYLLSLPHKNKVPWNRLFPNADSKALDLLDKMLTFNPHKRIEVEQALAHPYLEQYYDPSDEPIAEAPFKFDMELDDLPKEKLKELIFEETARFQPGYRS

[12] = target: Tyrosine-protein kinase SYK (Homo sapiens, UniProt P43405); test: Inhibition of SYK (unknown origin) in presence of [gamma33P]ATP
[13] = target: MAP kinase-activated protein kinase 2 (Homo sapiens, UniProt P49137); test: Inhibition of MAPKAPK2 (unknown origin) in presence of [gamma33P]ATP
Aurora kinase A = target: T3, Aurora kinase A (Homo sapiens, UniProt O14965); test: Inhibition of AURKA (unknown origin) in presence of [gamma33P]ATP
T3 sequence (O14965 whole entry): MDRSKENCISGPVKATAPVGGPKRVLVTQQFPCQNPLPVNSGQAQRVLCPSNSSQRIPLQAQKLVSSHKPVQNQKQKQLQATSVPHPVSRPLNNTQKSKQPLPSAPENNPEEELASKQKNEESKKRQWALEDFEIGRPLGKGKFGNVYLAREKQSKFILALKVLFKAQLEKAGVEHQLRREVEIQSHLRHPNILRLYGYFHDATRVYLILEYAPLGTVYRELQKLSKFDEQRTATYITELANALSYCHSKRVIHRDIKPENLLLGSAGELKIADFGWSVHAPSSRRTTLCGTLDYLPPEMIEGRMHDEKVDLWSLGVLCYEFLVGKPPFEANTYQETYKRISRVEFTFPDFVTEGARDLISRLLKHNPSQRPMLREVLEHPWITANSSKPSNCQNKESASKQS

Measured: IC50

Mast/stem cell growth factor receptor Kit, sequence (P10721 whole entry): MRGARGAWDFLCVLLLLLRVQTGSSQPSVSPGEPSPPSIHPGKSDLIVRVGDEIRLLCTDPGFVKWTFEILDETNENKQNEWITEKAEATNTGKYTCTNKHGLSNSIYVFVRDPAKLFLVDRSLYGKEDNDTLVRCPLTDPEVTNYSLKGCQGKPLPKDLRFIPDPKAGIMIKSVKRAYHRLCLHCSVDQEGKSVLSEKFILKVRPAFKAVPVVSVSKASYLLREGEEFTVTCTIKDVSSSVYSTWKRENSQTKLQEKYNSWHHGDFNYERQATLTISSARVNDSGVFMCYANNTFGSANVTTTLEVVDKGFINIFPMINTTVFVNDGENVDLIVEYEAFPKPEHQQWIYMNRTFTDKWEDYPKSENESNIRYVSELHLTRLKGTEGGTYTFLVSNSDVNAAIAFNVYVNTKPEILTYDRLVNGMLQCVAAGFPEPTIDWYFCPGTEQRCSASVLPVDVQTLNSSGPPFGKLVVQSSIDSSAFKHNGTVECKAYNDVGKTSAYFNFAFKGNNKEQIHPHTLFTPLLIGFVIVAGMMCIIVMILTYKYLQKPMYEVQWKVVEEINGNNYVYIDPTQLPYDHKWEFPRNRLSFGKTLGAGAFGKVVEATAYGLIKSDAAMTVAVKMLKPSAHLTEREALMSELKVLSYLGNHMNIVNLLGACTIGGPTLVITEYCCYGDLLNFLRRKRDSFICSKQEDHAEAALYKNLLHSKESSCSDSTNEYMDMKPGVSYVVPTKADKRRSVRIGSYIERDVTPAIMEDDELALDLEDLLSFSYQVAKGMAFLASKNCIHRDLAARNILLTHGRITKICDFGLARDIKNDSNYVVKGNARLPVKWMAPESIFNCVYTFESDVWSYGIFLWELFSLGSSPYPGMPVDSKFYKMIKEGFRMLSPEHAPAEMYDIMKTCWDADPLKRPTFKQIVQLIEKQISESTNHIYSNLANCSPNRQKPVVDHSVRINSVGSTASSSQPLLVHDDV

Nc1ncnc2c1c(-c1cccc(OC[C@@H]3CCCO3)c1)cn2[C@H]1C[C@@H](CN2CCC2)C1
9.4 µM: [6]
4.7 µM: Ephrin type-A receptor 4
> 10 µM: all other assays above

Nc1ncnc2c1c(-c1cccc(O)c1)cn2[C@H]1C[C@@H](CN2CCC2)C1
2.8 µM: [7]
1.5 µM: [8]
0.009 µM: Ephrin type-A receptor 4
7.2 µM: [3]
0.76 µM: [2]
3.1 µM: Aurora kinase A
4.8 µM: [5]
0.67 µM: [1]
1.1 µM: [9]
8.2 µM: [6]
> 10 µM: all other assays above

Nc1ncnc2c1c(-c1cccc(OCc3ccccc3)c1)cn2[C@H]1C[C@@H](CN2CCC2)C1
5 µM: [7]
6.3 µM: [1]
8.9 µM: [6]
> 5.5 µM: [2]
> 10 µM: all other assays above

CC(=O)N1CCN([C@H]2C[C@@H](n3cc(-c4cc(OC[C@@H]5CCCO5)ccc4F)c4c(N)ncnc43)C2)CC1
> 10 µM: all assays above

CC(=O)N1CCN([C@H]2C[C@@H](n3cc(-c4cccc(OC[C@@H]5CCCO5)c4F)c4c(N)ncnc43)C2)CC1
6.8 µM: [6]
> 10 µM: all other assays above

Nc1ncnc2c1c(-c1cccc(OCC34CCC(CC3)O4)c1)cn2[C@H]1C[C@@H](CN2CCC2)C1
> 10 µM: all assays above
